Results published in ChEMBL document CHEMBL1147144, “Novel styrylpyridines as probes for SPECT imaging of amyloid plaques” (J Med Chem, 2007).

Tests used:
[1] = test system: Zone of skin; assay: Biodistribution in ICR mouse skin at 5 to 10 uCi, iv after 2 hrs; assay type: ADME, organism-based; settings: in vivo
[2] = test system: Thyroid gland; assay: Biodistribution in ICR mouse thyroid at 5 to 10 uCi, iv after 1 hr; assay type: ADME, organism-based; settings: in vivo
[3] = test system: Lung; assay: Biodistribution in ICR mouse lung at 5 to 10 uCi, iv after 1 hr; assay type: ADME, organism-based; settings: in vivo
[4] = test system: Blood; assay: Biodistribution in ICR mouse blood at 5 to 10 uCi, iv after 2 mins; assay type: ADME, organism-based; settings: in vivo
[5] = test system: Spleen; assay: Biodistribution in ICR mouse spleen at 5 to 10 uCi, iv after 30 mins; assay type: ADME, organism-based; settings: in vivo, 0.5 h
[6] = test system: Kidney; assay: Biodistribution in ICR mouse kidney at 5 to 10 uCi, iv after 2 mins; assay type: ADME, organism-based; settings: in vivo
[7] = test system: Liver; assay: Biodistribution in ICR mouse liver at 5 to 10 uCi, iv after 2 hrs; assay type: ADME, organism-based; settings: in vivo
[8] = test system: Lung; assay: Biodistribution in ICR mouse lung at 5 to 10 uCi, iv after 2 hrs; assay type: ADME, organism-based; settings: in vivo
[9] = test system: Muscle tissue; assay: Biodistribution in ICR mouse muscle at 5 to 10 uCi, iv after 2 mins; assay type: ADME, organism-based; settings: in vivo
[10] = test system: Liver; assay: Biodistribution in ICR mouse liver at 5 to 10 uCi, iv after 1 hr; assay type: ADME, organism-based; settings: in vivo
[11] = test system: Brain; assay: Biodistribution in ICR mouse brain at 5 to 10 uCi, iv after 30 mins; assay type: ADME, organism-based; settings: in vivo, 0.5 h
[12] = test system: Brain; assay: Biodistribution in ICR mouse brain at 5 to 10 uCi, iv after 2 mins; assay type: ADME, organism-based; settings: in vivo
[13] = test system: Liver; assay: Biodistribution in ICR mouse liver at 5 to 10 uCi, iv after 30 mins; assay type: ADME, organism-based; settings: in vivo, 0.5 h
[14] = test system: Brain; assay: Biodistribution in ICR mouse brain at 5 to 10 uCi, iv after 2 hrs; assay type: ADME, organism-based; settings: in vivo
[15] = test system: Blood; assay: Biodistribution in ICR mouse blood at 5 to 10 uCi, iv after 1 hr; assay type: ADME, organism-based; settings: in vivo
[16] = test system: Zone of skin; assay: Biodistribution in ICR mouse skin at 5 to 10 uCi, iv after 1 hr; assay type: ADME, organism-based; settings: in vivo
[17] = test system: Spleen; assay: Biodistribution in ICR mouse spleen at 5 to 10 uCi, iv after 1 hr; assay type: ADME, organism-based; settings: in vivo
[18] = test system: Heart; assay: Biodistribution in ICR mouse heart at 5 to 10 uCi, iv after 1 hr; assay type: ADME, organism-based; settings: in vivo
[19] = test system: Muscle tissue; assay: Biodistribution in ICR mouse muscle at 5 to 10 uCi, iv after 2 hrs; assay type: ADME, organism-based; settings: in vivo
[20] = test system: Blood; assay: Biodistribution in ICR mouse blood at 5 to 10 uCi, iv after 2 hrs; assay type: ADME, organism-based; settings: in vivo
[21] = test system: Thyroid gland; assay: Biodistribution in ICR mouse thyroid at 5 to 10 uCi, iv after 30 mins; assay type: ADME, organism-based; settings: in vivo, 0.5 h
[22] = test system: Lung; assay: Biodistribution in ICR mouse lung at 5 to 10 uCi, iv after 30 mins; assay type: ADME, organism-based; settings: in vivo, 0.5 h
[23] = test system: Heart; assay: Biodistribution in ICR mouse heart at 5 to 10 uCi, iv after 30 mins; assay type: ADME, organism-based; settings: in vivo, 0.5 h
[24] = test system: Zone of skin; assay: Biodistribution in ICR mouse skin at 5 to 10 uCi, iv after 30 mins; assay type: ADME, organism-based; settings: in vivo, 0.5 h
[25] = test system: Kidney; assay: Biodistribution in ICR mouse kidney at 5 to 10 uCi, iv after 1 hr; assay type: ADME, organism-based; settings: in vivo
[26] = test system: Muscle tissue; assay: Biodistribution in ICR mouse muscle at 5 to 10 uCi, iv after 30 mins; assay type: ADME, organism-based; settings: in vivo, 0.5 h
[27] = test system: Blood; assay: Biodistribution in ICR mouse blood at 5 to 10 uCi, iv after 30 mins; assay type: ADME, organism-based; settings: in vivo, 0.5 h
[28] = test system: Liver; assay: Biodistribution in ICR mouse liver at 5 to 10 uCi, iv after 2 mins; assay type: ADME, organism-based; settings: in vivo
[29] = test system: Thyroid gland; assay: Biodistribution in ICR mouse thyroid at 5 to 10 uCi, iv after 2 mins; assay type: ADME, organism-based; settings: in vivo
[30] = test system: Kidney; assay: Biodistribution in ICR mouse kidney at 5 to 10 uCi, iv after 30 mins; assay type: ADME, organism-based; settings: in vivo, 0.5 h
[31] = test system: Heart; assay: Biodistribution in ICR mouse heart at 5 to 10 uCi, iv after 2 mins; assay type: ADME, organism-based; settings: in vivo
[32] = test system: Kidney; assay: Biodistribution in ICR mouse kidney at 5 to 10 uCi, iv after 2 hrs; assay type: ADME, organism-based; settings: in vivo
[33] = test system: Thyroid gland; assay: Biodistribution in ICR mouse thyroid at 5 to 10 uCi, iv after 2 hrs; assay type: ADME, organism-based; settings: in vivo
[34] = Partition coefficient, log P at pH 7.4; assay type: physicochemical; settings: octanol/water
[35] = test system: Lung; assay: Biodistribution in ICR mouse lung at 5 to 10 uCi, iv after 2 mins; assay type: ADME, organism-based; settings: in vivo
[36] = test system: Zone of skin; assay: Biodistribution in ICR mouse skin at 5 to 10 uCi, iv after 2 mins; assay type: ADME, organism-based; settings: in vivo
[37] = test system: Muscle tissue; assay: Biodistribution in ICR mouse muscle at 5 to 10 uCi, iv after 1 hr; assay type: ADME, organism-based; settings: in vivo
[38] = test system: Brain; assay: Biodistribution in ICR mouse brain at 5 to 10 uCi, iv after 1 hr; assay type: ADME, organism-based; settings: in vivo
[39] = test system: Spleen; assay: Biodistribution in ICR mouse spleen at 5 to 10 uCi, iv after 2 mins; assay type: ADME, organism-based; settings: in vivo
[40] = test system: Heart; assay: Biodistribution in ICR mouse heart at 5 to 10 uCi, iv after 2 hrs; assay type: ADME, organism-based; settings: in vivo
[41] = test system: Brain; assay: Ratio of drug distribution in brain after 2 mins to 30 mins in ICR mouse at 5 to 10 uCi, iv; assay type: ADME, organism-based; settings: in vivo
[42] = test system: Spleen; assay: Biodistribution in ICR mouse spleen at 5 to 10 uCi, iv after 2 hrs; assay type: ADME, organism-based; settings: in vivo

Drug uptake [1]: 1.23 % ID/g
Drug uptake [2]: 24.2 % ID/g
Drug uptake [3]: 1.62 % ID/g
Drug uptake [4]: 2.7 % ID/g
Drug uptake [5]: 1.42 % ID/g
Drug uptake [6]: 16.6 % ID/g
Drug uptake [7]: 5.62 % ID/g
Drug uptake [8]: 1.33 % ID/g
Drug uptake [9]: 0.9 % ID/g
Drug uptake [10]: 5.34 % ID/g
Drug uptake [11]: 1.93 % ID/g
Drug uptake [12]: 4.03 % ID/g
Drug uptake [13]: 9.54 % ID/g
Drug uptake [14]: 0.26 % ID/g
Drug uptake [15]: 1.65 % ID/g
Drug uptake [16]: 1.59 % ID/g
Drug uptake [17]: 0.99 % ID/g
Drug uptake [18]: 0.97 % ID/g
Drug uptake [19]: 0.53 % ID/g
Drug uptake [20]: 1.45 % ID/g
Drug uptake [21]: 16.2 % ID/g
Drug uptake [22]: 2.5 % ID/g
Drug uptake [23]: 1.63 % ID/g
Drug uptake [24]: 1.47 % ID/g
Drug uptake [25]: 2.3 % ID/g
Drug uptake [26]: 1 % ID/g
Drug uptake [27]: 2.05 % ID/g
Drug uptake [28]: 22.2 % ID/g
Drug uptake [29]: 3.89 % ID/g
Drug uptake [30]: 3.32 % ID/g
Drug uptake [31]: 12.76 % ID/g
Drug uptake [32]: 1.71 % ID/g
Drug uptake [33]: 60.8 % ID/g
logD [34]: 2.2
Drug uptake [35]: 10.1 % ID/g
Drug uptake [36]: 0.54 % ID/g
Drug uptake [37]: 0.59 % ID/g
Drug uptake [38]: 0.68 % ID/g
Drug uptake [39]: 4.47 % ID/g
Drug uptake [40]: 0.73 % ID/g
Ratio [41]: 2.09
Drug uptake [42]: 0.79 % ID/g
Compound: CN(C)c1ccc(/C=C/c2cnc(OCCOCCOCCF)c([125I])c2)cc1
